Measured values from ChEMBL document CHEMBL3286326, “Chiral Resolution and Serendipitous Fluorination Reaction for the Selective Dopamine D3 Receptor Antagonist BAK2-66” (ACS Med Chem Lett, 2014).

What was measured:
D(2) dopamine receptor = D(2) dopamine receptor (Homo sapiens, UniProt P14416); test: Displacement of [3H]N-methylspiperone from human dopamine D2 receptor expressed in human HEK293 cell membrane for 1 hr by liquid scintillation counting analysis; assay type: cell membranes
D(4) dopamine receptor = biological target: T1, D(4) dopamine receptor (Homo sapiens, UniProt P21917); test: Displacement of [3H]N-methylspiperone from human dopamine D4 receptor expressed in human HEK293 cell membrane for 1 hr by liquid scintillation counting analysis; assay type: cell membranes
T1 sequence (P21917 whole entry): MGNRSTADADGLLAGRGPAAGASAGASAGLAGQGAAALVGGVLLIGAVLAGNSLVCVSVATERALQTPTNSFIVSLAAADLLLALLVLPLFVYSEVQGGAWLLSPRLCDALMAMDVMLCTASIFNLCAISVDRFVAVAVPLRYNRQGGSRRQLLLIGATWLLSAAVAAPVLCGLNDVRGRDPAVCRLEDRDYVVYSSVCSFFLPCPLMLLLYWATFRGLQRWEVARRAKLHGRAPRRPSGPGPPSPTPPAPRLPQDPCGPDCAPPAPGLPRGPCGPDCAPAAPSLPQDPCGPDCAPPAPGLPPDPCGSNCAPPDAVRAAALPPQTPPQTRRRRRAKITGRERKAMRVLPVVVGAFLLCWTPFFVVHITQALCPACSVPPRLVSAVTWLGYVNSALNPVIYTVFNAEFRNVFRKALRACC

D(3) dopamine receptor = D(3) dopamine receptor (Homo sapiens, UniProt P35462); test: biochemical
Chain of D(3) dopamine receptor (P35462 whole entry): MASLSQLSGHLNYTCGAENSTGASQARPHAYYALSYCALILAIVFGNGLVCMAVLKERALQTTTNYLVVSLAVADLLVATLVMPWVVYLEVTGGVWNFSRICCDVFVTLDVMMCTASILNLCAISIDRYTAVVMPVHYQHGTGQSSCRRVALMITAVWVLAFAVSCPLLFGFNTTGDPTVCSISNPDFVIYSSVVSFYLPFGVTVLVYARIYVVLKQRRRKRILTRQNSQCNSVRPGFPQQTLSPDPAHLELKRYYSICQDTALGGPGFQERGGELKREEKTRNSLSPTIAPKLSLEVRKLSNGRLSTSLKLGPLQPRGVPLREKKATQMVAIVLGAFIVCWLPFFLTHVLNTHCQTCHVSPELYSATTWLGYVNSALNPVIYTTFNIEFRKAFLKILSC
Description: Displacement of [3H]N-methylspiperone from human dopamine D3 receptor expressed in human HEK293 cell membrane for 1 hr by liquid scintillation counting analysis

Chain of D(2) dopamine receptor (P14416 whole entry): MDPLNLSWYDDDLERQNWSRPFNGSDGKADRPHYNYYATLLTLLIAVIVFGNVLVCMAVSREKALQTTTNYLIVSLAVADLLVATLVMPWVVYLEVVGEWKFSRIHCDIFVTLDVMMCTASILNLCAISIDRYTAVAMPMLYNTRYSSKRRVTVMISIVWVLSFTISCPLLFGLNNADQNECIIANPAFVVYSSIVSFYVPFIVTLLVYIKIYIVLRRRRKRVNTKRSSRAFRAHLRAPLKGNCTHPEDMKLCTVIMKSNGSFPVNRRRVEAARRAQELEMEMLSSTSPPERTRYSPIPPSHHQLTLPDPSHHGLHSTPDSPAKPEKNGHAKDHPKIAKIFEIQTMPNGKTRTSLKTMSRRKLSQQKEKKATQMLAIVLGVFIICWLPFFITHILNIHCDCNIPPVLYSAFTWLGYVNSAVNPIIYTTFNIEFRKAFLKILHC

O=C(NCCC(CF)N1CCN(c2cccc(Cl)c2Cl)CC1)c1cc2ccccc2o1 (stereo not drawn)
Ki (D(2) dopamine receptor): 7.4 µM | Ki (D(4) dopamine receptor): > 3 µM | Ki (D(3) dopamine receptor): 0.56 µM
